# Measurements reported in PMC11965660, “Isobavachalcone ameliorates Alzheimer disease pathology by autophagy-mediated clearance of amyloid beta and inhibition of NLRP3 inflammasome in primary astrocytes and 5x-FAD mice” (Frontiers in Pharmacology, 2025).
# Entries after “also recorded” stand apart in the source; their conditions may differ. Where two headings read alike, the source gives them in different places.
# Tests used:
# [1] = tested on: Aβ plaques; experiment: Immunohistochemistry of Aβ in hippocampus; type: in vivo, 5x-FAD mice; settings: for average number of Aβ plaques: 5x-FAD mice
# Text: (§1) Hemizygous 5x-FAD transgenic mice (B6.Cg-Tg(APPSwFlLon, PSEN1*M146L*L286V) 6799Vas/Mmjax; MMRRC Strain: 034848-JAX) on congenic C57BL/6J genetic background were used for experiments. The 5x-FAD mice were genotyped using APP-specific qPCR probes to detect the transgene as per the protocol of Jackson Laboratory. Six months old 5x-FAD mice were randomly divided into three groups (n = 5), based on their body weights, with three males and two females in each group. We used mixed-cohort of males and females for our study to exclude any gender biased effect of IBC. Also, AD symptoms are more pronounced in females than in males ([Aggarwal and Mielke, 2023]), making it possible that males and females respond differently to the drug and treatment. Considering this, it is important to show effect of IBC on both sexes. At this age, Aβ deposition and neuroinflammation has already progressed in these mice. We have used IBC as a curative drug rather than a preventive drug. Prior to the initiation of the study, all the animals were acclimatized for 1 week under standard laboratory conditions; animals were drug naive with no prior procedures performed. All testing were performed from 1 to 4 p.m. IBC was orally (OD) given to two groups at different doses, 25 mg/kg (1% DMSO, 2% Tween 80, 19% PEG200, and 78% distilled water) and 50 mg/kg (1% DMSO, 5% Tween 80, 19% PEG200% and 75% distilled water) using oral gavage. 5x-FAD control mice were administered with vehicle (1% DMSO, 5% Tween 80, 19% PEG200% and 75% distilled water). For behavioral and Immunohistochemistry assays, experimenters were blinded to animal identity while carrying out the procedures.
# Mice’s hippocampus tissue was fixed in 10% formalin. Dehydrated tissue slices were made and placed on slides. For analysis, tissue was rehydrated following subsequent incubation in xylene, xylene: ethanol, 100% ethanol, 90% ethanol, 70% and 50% ethanol. After tissue rehydration, cells were permeabilized using 0.4% Triton-X100 for 10 min. […] Images were taken in a CQ1 high throughput imaging system and analyzed using cell pathfinder software.
# [2] = tested on: Aβ42; experiment: Aβ clearance assay in primary astrocytes; type: cell-based, C57BL/6J mice
# Description: Aβ42-HiLyte fluor488 peptide was prepared following the manufacturer’s protocol (Anaspec Inc.). Primary astrocytes seeded on coverslips were treated with IBC (10 μM) or rapamycin (24 h). After 12 h, 2 μg/ml fluorochrome tagged (Hilyte fluor488) Aβ42 protein was added to cells for another 12 h. Bafilomycin A1 was given 3 h prior to experiment termination. After the end of the assay, cells were washed with PBS and cells were fixed with 4% PFA, permeabilized with Triton-X 100, and the nucleus was stained with DAPI, as mentioned above. Similarly, slides were prepared, and images were taken and analyzed in the CQ1 high throughput imaging system.
# AMPK expression was knocked down from the cells by using siRNA against AMPK using FuGENE HD for 24 h. Primary astrocytes seeded in 6 well plates were incubated in OPTI-MEM media for 30 min prior to transfection. The transfection mixture was prepared and kept in sterile condition for 20 min before being added to the cells. Following this, cells were treated for NLRP3 inflammasome activation as described above.
# [3] = tested on: 5x-FAD mice; experiment: Radial arm maze test; type: in vivo; settings: for Latency to first entry to baited arm: 5x-FAD mice
# Text: as §1
# To check the effect of IBC on the behavior of 5x-FAD mice, open field test (OFT), rotarod (Make; Ugo Basile, rota-rod for mice 7650) and radial arm maze (Make; Ugo Basile) tests were performed. All behavioral assays and testing were performed by an experimenter blinded to the treatment groups. To check the effect of IBC on motor coordination and balancing rotarod test was performed. After acclimatizing mice with rotarod for 5 days, their latency to fall was calculated on the day of analysis. The given final values are the mean of three independent attempts of each mouse. OFT was performed to assess exploratory and locomotor activity in a white box (45 × 60 cm). Distance traveled, speed, time spent in corner and center zones and mobile episodes were recorded through an automated video tracking system using AnyMaze software. To check the effect of IBC on the spatial memory of mice, the eight-armed radial arm maze test was done. The mice were acclimatized to the maze for 5 days before the experiment. Each mouse was trained to navigate the maze for five consecutive days. The mouse was placed on the end of one arm (entry arm). For spatial memory assessment, a food reward (100 mg of butter cookies) was placed in the selected arm, which was considered as […]. The movement of mice was tracked with the help of automated AnyMaze software connected with a tracking camera and various memory retention parameters were assessed.
# [4] = Pharmacokinetic analysis in plasma and brain; type: in vivo; settings: C57BL/6J mice
# Description: C57BL/6J (Jax:000664) male mice were used for pharmacokinetic analysis of IBC. Mice were randomly sorted into 9 groups (n = 5). 30 mg/kg oral dose of IBC (1% DMSO +70% PEG-200 + 29% water) was given to mice. Blood or brain samples were collected at 0, 0.25, 0.5, 1, 2, 4, 6, 8 and 24 h. The plasma (100 µL) sample was processed with ethyl acetate (200 µL) containing IS (150 ng/mL) and centrifuged at 300 g for 10 min. The organic layer was separated and dried in a vacuum, reconstituted with acetonitrile, and analyzed by LC-MS/MS [SRM transition of IBC and IS (Phenacetin) is 325.2 & gt; 149.0 and 180.2 & gt; 110.2 in Positive mode]. Brain homogenate was prepared using the weighted amount of brain tissue in water at the concentration level of 350 mg/mL and processed similarly to plasma samples.
# [5] = 25 and 50 mg/kg oral, vs 5x-FAD control
# [6] = male, mouse, blood plasma, 30 mg/kg oral
# [7] = male, mouse, brain, 30 mg/kg oral
smiles,measurement,setting,value
"CC(C)=CCc1c(O)ccc(C(=O)/C=C/c2ccc(O)cc2)c1O [IBC, isobavachalcone]",average number of Aβ plaques,[1]; 25 mg/kg oral 2 months,21
same,average number of Aβ plaques,[1]; 50 mg/kg oral 2 months,15
same,total Aβ fluorescence intensity,"[1]; 25 and 50 mg/kg, vs 5x-FAD control",highly significant decline
same,intracellular Aβ level,[2]; 10 μM with bafilomycin A1,increased
same,effect on clearance of Aβ,[2]; 10 μM with siAMPK,complete reversal
same,intracellular Aβ42-HiLyte fluor488 fluorescence,"[2]; 10 μM, 24 h, vs cells with Aβ alone",significantly low fluorescence
same,Latency to first entry to baited arm,[3]; 25 mg/kg oral,16.58 s
same,Latency to first entry to baited arm,[3]; 50 mg/kg oral,14.36 s
same,Baited arm time,[3]; [5],significantly longer time
same,Distance traveled to find the baited arm,[3]; [5],significantly less distance
same,Entries to non-baited arm,[3]; [5],smaller number of entries
same,Cl,"[4]; blood plasma, 30 mg/kg oral",833 ± 120 mL/min/kg
same,Vd,"[4]; blood plasma, 30 mg/kg oral",355 ± 81 L/kg
same,AUC0-t,"[4]; brain, 30 mg/kg oral",72 ± 7 ng·h/g
same,AUC0-∞,"[4]; brain, 30 mg/kg oral",79 ± 7 ng·h/g
same,Kp,"[4]; male, mouse, brain and plasma, 30 mg/kg oral, read-out: brain-to-plasma ratio",0.12 to 0.16
same,AUC(0-inf),[4]; [6],637 ± 74 ng·h/mL
same,Cmax,[4]; [6],208 ± 46 ng/mL
same,Tmax,[4]; [6],0.6 ± 0.1 h
same,half-life,[4]; [6],5.6 ± 1.5 h
same,AUC0-t,"[4]; male, mouse, blood plasma, 30 mg/kg oral, read-out: AUC0-t",548 ± 59 ng·h/mL
same,Cmax,[4]; [7],34 ± 4 ng/g
same,Tmax,[4]; [7],0.6 ± 0.1 h
same,half-life,[4]; [7],1.8 ± 0.4 h
same,blood-brain barrier penetration,"[4]; single dose 30 mg/kg p.o., 30 mg/kg",low penetration; also recorded: low brain availability
